This is an account of results in PMC7663372, “Brain Distribution of Dual ABCB1/ABCG2 Substrates Is Unaltered in a Beta-Amyloidosis Mouse Model” (International Journal of Molecular Sciences, 2020).

Like-named read-outs stand apart in the source and are kept apart here.

One data set concerns ABCB1 at the BBB. As to conditions: cited from earlier work.
For data set [1], the system named is ABCB1. Also on record: method as in PMID 26940368. As to conditions: read-out: IC50 for in vitro inhibition of its own transport by ABCB1; cited from earlier work.
The next data set deals with ABCG2. Also on record: method as in PMID 26940368. As to conditions: read-out: IC50 for in vitro inhibition of its own transport by ABCG2; cited from earlier work.
Data set [2] concerns ABCB1. As to conditions: cited from earlier work.
In data set [3] the target is T1, ABCG2 at the mouse BBB (Mus musculus, UniProt Q7TMS5).
T1 sequence (Q7TMS5 1-657): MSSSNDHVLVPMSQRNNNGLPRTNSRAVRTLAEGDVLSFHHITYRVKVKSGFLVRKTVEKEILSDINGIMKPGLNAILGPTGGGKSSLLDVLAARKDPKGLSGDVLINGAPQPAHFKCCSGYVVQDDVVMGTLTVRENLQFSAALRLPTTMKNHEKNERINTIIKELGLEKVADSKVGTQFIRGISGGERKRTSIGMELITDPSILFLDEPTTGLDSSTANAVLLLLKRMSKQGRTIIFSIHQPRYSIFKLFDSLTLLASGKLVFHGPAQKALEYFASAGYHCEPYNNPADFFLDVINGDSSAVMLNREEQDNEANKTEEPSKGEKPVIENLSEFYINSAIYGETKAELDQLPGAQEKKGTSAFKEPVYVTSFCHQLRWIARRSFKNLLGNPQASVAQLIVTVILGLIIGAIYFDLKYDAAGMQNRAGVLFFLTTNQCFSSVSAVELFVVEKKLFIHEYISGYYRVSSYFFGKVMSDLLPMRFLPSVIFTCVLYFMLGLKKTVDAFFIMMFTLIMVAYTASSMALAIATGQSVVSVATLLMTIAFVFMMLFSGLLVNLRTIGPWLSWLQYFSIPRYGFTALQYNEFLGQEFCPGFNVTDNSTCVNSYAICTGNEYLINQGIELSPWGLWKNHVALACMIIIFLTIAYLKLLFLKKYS
Also on record: Two PET imaging approaches for assessing the activity of ABCG2 at the mouse BBB were performed; from tissue; host or cells: blood-brain barrier (brain capillary endothelium) of living female APP/PS1-21 and wild-type C57BL/6J mice; method as in PMID 22828996. As to conditions: Abcb1a/b(-/-) mice pretreated with 15 mg/kg Ko143; cited from earlier work.

Data set [4] addresses T1, ABCG2 at the mouse BBB. As to conditions: for percentage increase in Kp,brain following ABCG2 inhibition: Ko143 5 mg/kg vs vehicle, tariquidar 12 mg/kg, hippocampus, cortex; for change in Kp,brain after partial ABCG2 inhibition: Ko143 5 mg/kg.
In data set [5] the test system is ABCB1. As to conditions: cited from earlier work. This is another data set of the same source.

`CNC(=O)C(CCN1CCC(O)(c2ccc(Cl)cc2)CC1)(c1ccccc1)c1ccccc1` [[^11C]N-desmethyl-loperamide]: the “increase in brain distribution relative to wild-type mice” value in the data set with ABCB1 at the BBB (heterozygous Abcb1a/b(+/-) knockout mice) is on record as 1.1 fold; in the data set with ABCB1 at the BBB (homozygous Abcb1a/b(-/-) knockout mice), 2.8 fold.

As to `COc1cc2c(cc1OC)CN(CCc1ccc(NC(=O)c3cc(OC)c(OC)cc3NC(=O)c3cnc4ccccc4c3)cc1)CC2` [tariquidar], the IC50 in the data set on ABCB1 [1] is 17.1 nM; with ABCG2, 310 nM.

In the case of `CN(C)C(=O)C(CCN1CCC(O)(c2ccc(Cl)cc2)CC1)(c1ccccc1)c1ccccc1` [loperamide], the “change in brain distribution in triple transgenic AD mice (APPswe, PS-1M146V, tauP301L)” value with ABCB1 [2] is recorded as “no changes”.

Take `COc1cc2c(cc1OC)CN(CCc1ccc(NC(=O)c3cc(OC)c(OC)cc3NC(=O)c3cnc4ccccc4c3)cc1)CC2` [[^11C]tariquidar]: the “maximum brain uptake, Kp,brain” value at ABCG2 at the mouse BBB [3] is “approximately 15”. Besides, the “percentage increase in Kp,brain following ABCG2 inhibition” value on ABCG2 at the mouse BBB [4] (APP/PS1-21 mice, cerebellum) was 36–52%; on ABCG2 at the mouse BBB [4] (wild-type mice, cerebellum) it was 26–41%. The “change in Kp,brain after partial ABCG2 inhibition” value is “significantly increased” on ABCG2 at the mouse BBB [4] (cerebellum, APP/PS1-21 mice); “not in wild-type mice” at ABCG2 at the mouse BBB [4] (cerebellum, wild-type mice); “significantly higher” on ABCG2 at the mouse BBB [4] (hippocampus and cortex, both mouse strains).

Consider `Cc1nc2n(c(=O)c1CCN1CCC(c3noc4cc(F)ccc34)CC1)CCCC2O` (stereo not drawn) [paliperidone], for which the “difference in Kp,uu,brain between tg-APPArcSwe and age-matched control mice” value in the data set with ABCB1 [5] is on record as “no differences”.

In general, IC50 refers to the concentration at which inhibition is half-maximal.
